Reference: patent publication US20220096529A1, “2-HYDROXYPROPYL-BETA-CYCLODEXTRIN (HPBETACD) FOR USE IN THE TREATMENT OF BREAST CANCER” (UNIVERSITY OF THE WITWATERSRAND, JOHANNESBURG, priority 2019, published 2022)

Key:
[1] = AST/ALT assay of mice serum; assay type: in vivo
Procedure: Post-euthanisation, the mice serum was analysed for AST/ALT ([…]) levels in order to observe if HPβCD treatment had any toxic effects on liver of treated mice (FIG. 37). The AST/ALT ratio gives an estimate of liver toxicity or damage. […] The AST/ALT ratio for all the early and intermediate groups was not different from the untreated group, was under the recommended ratio of 2 and the values were below the reference range (40 U/L) except for AST levels in the late group. In latter groups, the ratio of AST/ALT was 2.2 which was slightly above the recommended limit but was not found to be statistically different from the untreated group. […] In this regard review FIG. 37.

MCF7 cells [2] = assay: Caspase 3/7 assay; assay type: cell-based, human; conditions: MCF7, 10 mM HPβCD
Procedure: (§1) The final step in apoptosis following the intrinsic pathway is the activation of executioner caspases like caspase 3 and caspase 7 […]. Therefore, to confirm that cell death was due to the mitochondrial mediated pathway of apoptosis a Caspase 3/7 assay was conducted. Caspases are activated in response to a myriad of cellular death stimuli and they dismantle the cell. Caspase 3 and caspase 7 contribute to the majority of proteolytic cleavage occurring in apoptosis. As a final step to confirm and validate apoptosis via the mitochondrial intrinsic pathway, the Caspase 3/7 assay was conducted on three cell lines: MCF7, MDA-MB-231 & HEK-293. HPβCD and positive (40 μM PL) were treated for 24 hrs. The percentage of dead/apoptotic cells are clearly indicated in specific corners of each quadrants in the above plots.

HEK-293 cells = assay: Caspase 3/7 assay; assay type: cell-based, human; conditions: HEK-293, 10 mM HPβCD, 24 hrs
Procedure: as §1

MDA-MB-231 cells [3] = assay: Caspase 3/7 assay; assay type: cell-based, human; conditions: MDA-MB-231, 10 mM HPβCD, 24 hrs
Procedure: as §1

MRC-5 cells = assay: Cholesterol quantification assay; assay type: cell-based, human
Procedure: (§2) To investigate if the apoptosis observed from all the above assays was due to cholesterol depletion, a cholesterol assay was performed on all three cell lines: MCF7, MDA-MB-231 and MRC-5. HPβCD and the positive PL, a known cholesterol depletor were treated for 24 hrs.
(§3) HPβCD and the positive (40 μM PL) were treated for 24 hrs. This assay gave us an estimate of total cholesterol, cholesterol esters and free cholesterol.

MCF7 cells [4] = assay: Cholesterol quantification assay; assay type: cell-based, human; conditions: MCF7, all concentrations 1, 5, 10, 20, 50 mM
Procedure: as §2, §3

MDA-MB-231 cells [5] = assay: Cholesterol quantification assay; assay type: cell-based, human; conditions: MDA-MB-231, all concentrations 1, 5, 10, 20, 50 mM
Procedure: as §2, §3

MCF7 cells [6] = assay: Mice xenograft, ER+ breast cancer; assay type: in vivo, Nude Mice, MF-1 strain
Procedure: Since the potency of HPβCD against breast cancer was established in our in vitro assays, a thorough investigation in a mice model was conducted (Nude Mice. MF-1 strain). MCF-7 and MDA-MB-231 cells were injected in 32 mice (16 for each cell type) and after tumour development, was treated with HPβCD (3000 mg/kg b.w.). Thrice a week dose treatment plan was followed throughout the study.
To examine if HPβCD can be used as a future anti-breast cancer drug, mice xenografts were prepared. MCF7 cells (5 million) cells were injected in 16 mice with weekly β-estradiol supplementation. The study for triple negative induced breast cancer (MDA-MB-231) is complete. Up to 4 million cells were injected in 16 mice. This was subdivided in three more groups namely: Late stage, intermediate stage and early stage estrogen negative cancer. 4 mice were grouped as untreated (not receiving HPβCD), 4 for treated (late stage), 3 for treated (intermediate stage) and 3 for treated (early stage).
The anticancer effect of HPβCD on estrogen positive MCF7 cells induced tumours in xenograft mice model was also tested. The study was not completed as only 4 out of 16 mice developed tumours. But the mice who developed tumour were treated with HPβCD and 9.6% tumour reduction was observed (FIGS. 49 and 50).

MDA-MB-231 cells [7] = assay: BODIPY lipid droplet staining; assay type: cell-based, human
From the text: Lipid droplets store cholesterol and HPβCD was able to reduce accumulation and storage of cholesterol in cancer cells.

MDA-MB-231 cells [8] = assay: Alexa Fluor lipid raft staining; assay type: cell-based, human
MCF7 cells [9] = assay: RT2 Profiler PCR Array Human Lipoprotein Signaling & Cholesterol Metabolism; assay type: cell-based; conditions: MCF7, majority of genes
From the text: (§4) PCR (polymerase chain reaction) arrays were run to identify gene expression changes in cancer cells after treatment with HPβCD. The differentially expressed genes along with their significance for cancer, some genes were selected for further drug-protein interaction studies.
(§5) Results from RT^2 Profiler™ PCR Array Human Lipoprotein Signaling & Cholesterol Metabolism (MCF7 and MDA-MB-231) are shown in FIG. 38.

MDA-MB-231 cells [10] = assay: as above; assay type: cell-based
From the text: as §4, §5

MCF7 cells [11] = assay: BODIPY lipid droplet staining; assay type: cell-based, human
Procedure: Lipid droplets store cholesterol and HPβCD was able to reduce accumulation and storage of cholesterol in cancer cells (see FIG. 52). […] (A) is untreated, (B) is positive and (C) is treated. […] Lipid droplets store cholesterol and HPβCD was able to reduce accumulation and storage of cholesterol in cancer cells.

MCF7 cells [12] = assay: Alexa Fluor lipid raft staining; assay type: cell-based, human
Procedure: (B) is positive and (C) is treated.

MDA-MB-231 cells [13] = assay: Filipin cholesterol staining; assay type: cell-based, human
Procedure: To further validate cholesterol depletion as observed from the cholesterol assay above a Filipin based cholesterol staining was conducted. MCF7. MDA-MB-231 cells were used. HEK-293 cells could not be used due to unavailability. HPβCD and the positive (5 mM MBCD) were treated for 24 hrs. Like PL, MBCD is also a well know cholesterol depletor.
Fluorescence microscopy has been a robust tool for investigating the intracellular transport of proteins. Filipin specifically binds to cholesterol and can give an overall quantification and has been more recently been clinically used in the diagnosis of Type C Niemann-Pick disease.

Substance: 2-hydroxypropyl-β-cyclodextrin [HPβCD]
- AST/ALT ratio ([1]; early and intermediate groups): < 2
- ratio of AST/ALT ([1]; late group, mice serum post-euthanisation): 2.2
- liver toxicity ([1]; mouse, in vivo, 3000 mg/kg): caused no toxicity
- total apoptosis compared to untreated (MCF7 cells [2]): almost two times more
- Total Apoptotic (caspase 3/7) (MCF7 cells [2]; 24 hrs): 12.5%
- Total Live (caspase 3/7) (HEK-293 cells): 66.75%
- Total Apoptotic (caspase 3/7) (MDA-MB-231 cells [3]): 48.75%
- total cholesterol reduction compared to untreated (MRC-5 cells; MRC-5, 10 mM HPβCD, 24 hrs): more than 50%
- total cholesterol content compared to untreated (MRC-5 cells; MRC-5, all concentrations 1, 5, 10, 20, 50 mM): reduced total cholesterol content
- total cholesterol content compared to untreated (MCF7 cells [4]): reduced total cholesterol content
- total cholesterol content compared to untreated (MDA-MB-231 cells [5]): reduced total cholesterol content
- average tumour size (MCF7 cells [6]; ER+ MCF7 mice, treated for 5 weeks): 5.3 mm^3
- tumour outcome (MCF7 cells [6]; Mouse No. 29, 30 and 32, treated for 5 weeks): healed completely
- tumour size (MCF7 cells [6]; Mouse No. 31, treated for 5 weeks): 21.28 mm^3
- lipid droplets (BODIPY) in treated vs untreated cells (MDA-MB-231 cells [7]): decrease in lipid droplets
- lipid rafts (ALEXA FLUOR) in treated vs untreated cells (MDA-MB-231 cells [8]): decrease in lipid rafts
- genes involved in cholesterol related pathways (MCF7 cells [9]): downregulated
- ABCA1 gene expression (MDA-MB-231 cells [10]; MDA-MB-231, HPβCD treated): upregulation
- genes involved in cholesterol related pathways (MDA-MB-231 cells [10]; MDA-MB-231, majority of genes): downregulated
- lipid droplets (BODIPY) in treated vs untreated cells (MCF7 cells [11]): decrease in lipid droplets
- lipid rafts (ALEXA FLUOR) in treated vs untreated cells (MCF7 cells [12]): decrease in lipid rafts
- Filipin fluorescence compared to untreated (MDA-MB-231 cells [13]; MDA-MB-231, 10 mM HPβCD, 24 hrs, ImageJ): six times less fluorescence
- cholesterol (Filipin staining) in treated vs untreated cells (MDA-MB-231 cells [13]; MDA-MB-231, FIG. 46): decreased cholesterol
